Data set [1] in a line: Dissociation constant, pKa of the compound. It counts as physicochemical.
The target of the next data set is Cytochrome P450 2C19 (Homo sapiens, UniProt P33261). Description: Inhibition of human CYP2C19. It is filed as ADME.
Another data set concerns the target Cytochrome P450 2C9 (Homo sapiens, UniProt P11712). In words: Inhibition of human CYP2C9.

Structures are written as SMILES.

Sequence of Cytochrome P450 2C19 (P33261 whole entry): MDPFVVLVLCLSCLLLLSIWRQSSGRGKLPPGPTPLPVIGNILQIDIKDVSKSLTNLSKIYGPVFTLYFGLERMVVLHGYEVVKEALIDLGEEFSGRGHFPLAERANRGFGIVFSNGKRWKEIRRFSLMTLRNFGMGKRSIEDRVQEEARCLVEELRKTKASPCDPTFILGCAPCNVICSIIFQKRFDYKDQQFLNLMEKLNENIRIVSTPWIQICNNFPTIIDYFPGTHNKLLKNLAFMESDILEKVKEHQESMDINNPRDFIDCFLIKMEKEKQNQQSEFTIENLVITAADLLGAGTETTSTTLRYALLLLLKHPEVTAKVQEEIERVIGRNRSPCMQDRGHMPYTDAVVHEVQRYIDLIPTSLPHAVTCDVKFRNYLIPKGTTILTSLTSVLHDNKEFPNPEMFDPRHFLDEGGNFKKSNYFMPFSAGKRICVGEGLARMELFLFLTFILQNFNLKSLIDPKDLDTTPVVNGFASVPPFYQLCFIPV
Sequence of Cytochrome P450 2C9 (P11712 whole entry): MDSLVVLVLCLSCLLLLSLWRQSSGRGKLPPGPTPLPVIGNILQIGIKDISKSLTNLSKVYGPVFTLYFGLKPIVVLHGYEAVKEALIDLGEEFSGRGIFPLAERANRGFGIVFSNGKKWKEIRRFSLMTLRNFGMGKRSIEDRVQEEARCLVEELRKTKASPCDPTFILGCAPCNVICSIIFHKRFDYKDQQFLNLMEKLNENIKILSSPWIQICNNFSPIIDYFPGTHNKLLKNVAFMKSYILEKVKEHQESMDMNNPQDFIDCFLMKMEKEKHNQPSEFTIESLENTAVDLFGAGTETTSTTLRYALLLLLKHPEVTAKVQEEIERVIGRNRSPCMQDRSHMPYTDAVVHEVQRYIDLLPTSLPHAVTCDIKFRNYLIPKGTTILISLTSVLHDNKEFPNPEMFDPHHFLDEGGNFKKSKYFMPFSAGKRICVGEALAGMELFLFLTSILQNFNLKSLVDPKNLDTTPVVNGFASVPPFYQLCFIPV

In data set [1], `CCc1oc2ccccc2c1C(O)c1cc(Br)c(O)c(Br)c1` (configuration not stated) had a pKa of 8.8. Also, the Ki at Cytochrome P450 2C19 is 300 nM.
As to `CCc1oc2ccccc2c1C(=O)c1ccc(N(C)C)cc1`, the Activity entry in data set [1] is “Not Active”. Moreover, the affinity at Cytochrome P450 2C19 corresponds to a Ki of 3700 nM.
Taken in the same sequence, the figures for `CCc1oc2ccccc2c1C(=O)c1cc(Cl)nc(Cl)c1` were “Not Active” and 13000 nM.
With `COc1ccc(C(=O)c2c(C)oc3ccccc23)cc1`, the Activity entry in data set [1] is “Not Active”. At Cytochrome P450 2C19, this compound gave a Ki of 4500 nM.
The matching figures for `CCc1oc2ccccc2c1C(=O)c1cc(C)c(OC)c(C)c1`: “Not Active” and 250 nM.
`CCc1oc2ccccc2c1C(=O)c1cc(Br)c(O)c(Br)c1` [BENZBROMARONE]: in data set [1], the pKa amounted to 4.5.
For the compound `CCc1oc2ccccc2c1C(=O)Cc1cc(Br)c(O)c(Br)c1`, the pKa in data set [1] amounted to 8.6. For the same compound, the inhibition constant Ki on Cytochrome P450 2C19 is 1600 nM.
`Cc1oc2ccccc2c1C(=O)c1cc(I)c(O)c(I)c1` came in with a pKa in data set [1] of 5.2. Also, the Ki on Cytochrome P450 2C19 is 7200 nM.
Taken in the same sequence, the figures for `Cc1oc2ccccc2c1C(=O)c1ccc(O)cc1` were 8.4 and 2500 nM.
The compound `CCc1oc2ccccc2c1C(=O)c1cc(C)c(O)c(C)c1` registered a pKa in data set [1] of 8.5. The inhibitory constant (Ki) on Cytochrome P450 2C9 worked out at 40 nM; on Cytochrome P450 2C19, 33 nM.
`Cc1oc2ccccc2c1C(=O)c1cc(Br)c(O)c(Br)c1`: the Ki on Cytochrome P450 2C19 turned out to be 2400 nM. This lies in the single-digit micromolar range.
Regarding `Cc1oc2ccccc2c1C(=O)c1cccc(O)c1`, the pKa in data set [1] came to 8.4. The compound further displayed a Ki at Cytochrome P450 2C19 of 4500 nM.
Turning to `Cc1oc2ccccc2c1C(=O)C1CCCCC1`, in data set [1], the Activity entry is “Not Active”. Also, the Ki at Cytochrome P450 2C19 is 13000 nM.
Taken in the same sequence, the figures for `CCc1oc2ccccc2c1C(=O)c1cc(Br)c(OC)c(Br)c1` were “Not Active” and 370 nM.

For the origin of these results see ChEMBL document CHEMBL1149305, “Charge and substituent effects on affinity and metabolism of benzbromarone-based CYP2C19 inhibitors” (J Med Chem, 2004).
